Test results as given in EPA's ToxValDB 9.5 (doi:10.2903/j.efsa.2015.4024).

Tested on: Rattus norvegicus
[1] = subchronic, duration: 90 days, oral, diet
[2] = subchronic, duration: 90 days, oral, gavage, M/F, Crj:CD, clinical signs

SMILES: Cc1cc(SSc2cc(C)oc2C)c(C)o1 [Furan, 3,3'-dithiobis[2,5-dimethyl-]
- NOEL [1]: 0.45 mg/kg-day

SMILES: CC1CC(S)C(C)O1 (centres undefined) [2,5-Dimethyltetrahydrofuran-3-thiol]
- NOAEL [2]: 5 mg/kg-day

SMILES: CCOC(=O)CCSCc1ccco1 [Ethyl 3-(furfurylthio)propionate]
- NOEL (subchronic, duration: 90 days): 17 mg/kg-day

SMILES: CC(=O)SC1=C(C)OCC1 [2-Methyl-3-thioacetoxy-4,5-dihydrofuran]
- NOEL (chronic, duration: 1 years, oral, diet): 8.3 mg/kg-day

SMILES: CSC(=O)c1ccco1 [2-Furancarbothioic acid, S-methyl ester]
- NOAEL (subchronic, duration: 90 days, oral): 6.63 mg/kg-day

SMILES: CC1OCCC1S (centres undefined) [Tetrahydro-2-methyl-3-furanthiol]
- NOAEL [2]: 5 mg/kg-day

SMILES: Cc1occc1SSc1ccoc1C [Bis(2-methyl-3-furyl)disulfide]
- NOEL [1]: 0.45 mg/kg-day

SMILES: Cc1cc(SC(=O)CC(C)C)c(C)o1 [2,5-Dimethyl-3-thioisovalerylfuran]
- NOEL (subchronic, duration: 90 days): 0.73 mg/kg-day

SMILES: Cc1occc1SSSSc1ccoc1C [Bis(2-methyl-3-furyl) tetrasulfide]
- NOEL (subchronic, duration: 90 days): 0.56 mg/kg-day
